Assay results published in patent US11000033B2, “Ketone or oxime compound, and herbicide” (NISSAN CHEMICAL CORPORATION, priority 2014, dated 2021).

Tests used:
Format in all cases: in vivo
Digitaria ciliaris = assay: Test Example 4: herbicidal effect by soil treatment (symbol F); settings: 320 g/ha
How it was run: (§1)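 Seeds were sown in sterilized diluvial soil, covered with about 1.5 cm of soil, and the soil surface was sprayed with a water-diluted emulsion of the compound at a predetermined rate. Plants grew in a greenhouse at 25° C. to 30° C.; effects were scored visually 3 weeks after application.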

Monochoria vaginalis [1] = assay: Test Example 1: herbicidal activity, application before weed generation in submerged conditions (symbol C); settings: application herbicide amount 320 g/ha
How it was run: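 Greenhouse growth at 25–30 °C lasted 3 weeks after treatment, when each weed was graded 0–5 by herbicidal ratio. Treatment was a diluted emulsion applied to the water surface of 4 cm-submerged alluvial soil on the sowing day.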

rice plant = assay: Test Example 5: effect on crop by foliage application, plastic box (symbol b); settings: 320 g/ha, 3 weeks after application
How it was run: (§2)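 Greenhouse culture at 25° C. to 30° C. followed spot-like sowing into sterilized diluvial soil, with seed covered by roughly 1.5 cm of soil.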

corn [2] = assay: Test Example 5: effect on crop by foliage application, plastic box (symbol c); settings: 320 g/ha, 3 weeks after application
How it was run: as §2

Scirpus juncoides = assay: Test Example 2: herbicidal activity, application during weed generation in submerged conditions (symbol B); settings: Table 23; application herbicide amount 320 g/ha; grade 0-5 by criteria of Test Example 1
How it was run: (§3)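 Read-out: herbicidal effect on each species rated on a visual scale 3 weeks after treatment. Plants were raised together from seed in flooded alluvial soil (4 cm water) at 25° C. to 30° C. and treated at one to two leaves by water-surface application of diluted emulsion.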

[3] = tested on: Echinochloa oryzacola Vasing.; assay: Test Example 2: herbicidal activity, application during weed generation in submerged conditions (symbol A); settings: Table 23; application herbicide amount 320 g/ha; grade 0-5 by criteria of Test Example 1
How it was run: as §3

Lolium multiflorum Lam. = assay: Test Example 5: herbicidal effect by foliage application, plastic box (symbol K); settings: 320 g/ha, 3 weeks after application
How it was run: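 Greenhouse foliar test: seedlings at 14 days, grown 25° C. to 30° C. in sterilized diluvial soil; compound applied as an aqueous dilution of an emulsion; response read 3 weeks after spraying.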

Chenopodium album = assay: Test Example 4: herbicidal effect by soil treatment (symbol O); settings: 320 g/ha
How it was run: as §1

rapeseed = assay: Test Example 4: effect on crop by soil treatment (symbol g); settings: 320 g/ha
How it was run: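 Crop seed is sown in spots together with several weed species in a box of sterilized diluvial soil. It is covered by about 1.5 cm of soil and kept in a greenhouse held between 25° C. and 30° C.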

Galium spurium = assay: Test Example 4: herbicidal effect by soil treatment (symbol Q); settings: 320 g/ha
How it was run: as §1

Abutilon theophrasti = assay: Test Example 4: herbicidal effect by soil treatment (symbol M); settings: 320 g/ha
How it was run: as §1

[4] = tested on: Echinochloa crus-galli var. crus-galli; assay: Test Example 4: herbicidal effect by soil treatment (symbol H); settings: 320 g/ha
How it was run: as §1

Avena fatua = assay: Test Example 4: herbicidal effect by soil treatment (symbol I); settings: 320 g/ha
How it was run: as §1

Monochoria vaginalis [5] = assay: Test Example 2: herbicidal activity, application during weed generation in submerged conditions (symbol C); settings: Table 23; application herbicide amount 320 g/ha; grade 0-5 by criteria of Test Example 1
How it was run: as §3

soybean = assay: Test Example 5: effect on crop by foliage application, plastic box (symbol d); settings: 320 g/ha, 3 weeks after application
How it was run: as §2

corn [6] = assay: Test Example 4: effect on crop by soil treatment (symbol c); settings: 320 g/ha
How it was run: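 Soil-treatment setup: crop and weed seeds were spot-sown into sterilized diluvial soil, then buried beneath approximately 1.5 cm of it, and the boxes were housed in a 25–30° C. greenhouse.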

SMILES: C=CCN(CC=C)C(=O)OC1=C(c2c(C)cc(C)cc2C)C(=O)C(CC(C)=NOC)C1 (centres unmarked) [1-153]
- F: Digitaria ciliaris, herbicidal effect grade (Digitaria ciliaris): 5 (Herbicidal ratio of 90% or more (almost completely withered))
- Herbicidal effect grade, C: Monochoria vaginalis (Monochoria vaginalis [1]): 0 (Herbicidal ratio of 5% or lower (almost no effect))
- b: directly sowed rice plant, effect on crop (criteria 0-5) (rice plant): 5 (Herbicidal ratio of 90% or more (almost completely withered))
- c: corn, effect on crop (criteria 0-5) (corn [2]): 3 (Herbicidal ratio of 40% or higher and lower than 70%)
- Herbicidal effect grade, B: Scirpus juncoides (Scirpus juncoides): 1 (Herbicidal ratio of 5% or higher and lower than 20%)
- Herbicidal effect grade, A: Echinochloa oryzacola Vasing. [3]: 4 (Herbicidal ratio of 70% or higher and lower than 90%)
- K: Lolium multiflorum Lam., herbicidal effect (criteria 0-5) (Lolium multiflorum Lam.): 5 (Herbicidal ratio of 90% or more (almost completely withered))
- O: Chenopodium album, herbicidal effect grade (Chenopodium album): 0 (Herbicidal ratio of 5% or lower (almost no effect))
- g: rapeseed, effect grade on crop (rapeseed): 0 (Herbicidal ratio of 5% or lower (almost no effect))
- Q: Galium spurium, herbicidal effect grade (Galium spurium): 0 (Herbicidal ratio of 5% or lower (almost no effect))
- M: Abutilon theophrasti, herbicidal effect grade (Abutilon theophrasti): 0 (Herbicidal ratio of 5% or lower (almost no effect))
- H: Echinochloa crus-galli var. crus-galli, herbicidal effect grade [4]: 0 (Herbicidal ratio of 5% or lower (almost no effect))
- I: Avena fatua, herbicidal effect grade (Avena fatua): 0 (Herbicidal ratio of 5% or lower (almost no effect))
- Herbicidal effect grade, C: Monochoria vaginalis (Monochoria vaginalis [5]): 0 (Herbicidal ratio of 5% or lower (almost no effect))
- d: soybean, effect on crop (criteria 0-5) (soybean): 1 (Herbicidal ratio of 5% or higher and lower than 20%)
- c: corn, effect grade on crop (corn [6]): 0 (Herbicidal ratio of 5% or lower (almost no effect))

SMILES: CON=C(C)CC1CC(OC(=O)c2ccc(S(C)(=O)=O)c(C(=O)OC)c2Cl)=C(c2c(C)cc(C)cc2C)C1=O (centres unmarked) [1-162]
- F: Digitaria ciliaris, herbicidal effect grade (Digitaria ciliaris): 5 (Herbicidal ratio of 90% or more (almost completely withered))
- Herbicidal effect grade, C: Monochoria vaginalis (Monochoria vaginalis [1]): 3 (Herbicidal ratio of 40% or higher and lower than 70%)
- b: directly sowed rice plant, effect on crop grade (rice plant): 5 (Herbicidal ratio of 90% or more (almost completely withered))
- c: corn, effect on crop grade (corn [2]): 4 (Herbicidal ratio of 70% or higher and lower than 90%)
- Herbicidal effect grade, B: Scirpus juncoides (Scirpus juncoides): 1 (Herbicidal ratio of 5% or higher and lower than 20%)
- Herbicidal effect grade, A: Echinochloa oryzacola Vasing. [3]: 5 (Herbicidal ratio of 90% or more (almost completely withered))
- K: Lolium multiflorum Lam., herbicidal effect grade (Lolium multiflorum Lam.): 5 (Herbicidal ratio of 90% or more (almost completely withered))
- O: Chenopodium album, herbicidal effect grade (Chenopodium album): 0 (Herbicidal ratio of 5% or lower (almost no effect))
- g: rapeseed, effect grade on crop (rapeseed): 4 (Herbicidal ratio of 70% or higher and lower than 90%)
- Q: Galium spurium, herbicidal effect grade (Galium spurium): 0 (Herbicidal ratio of 5% or lower (almost no effect))
- M: Abutilon theophrasti, herbicidal effect grade (Abutilon theophrasti): 5 (Herbicidal ratio of 90% or more (almost completely withered))
- H: Echinochloa crus-galli var. crus-galli, herbicidal effect grade [4]: 5 (Herbicidal ratio of 90% or more (almost completely withered))
- I: Avena fatua, herbicidal effect grade (Avena fatua): 3 (Herbicidal ratio of 40% or higher and lower than 70%)
- Herbicidal effect grade, C: Monochoria vaginalis (Monochoria vaginalis [5]): 2 (Herbicidal ratio of 20% or higher and lower than 40%)
- d: soybean, effect on crop grade (soybean): 2 (Herbicidal ratio of 20% or higher and lower than 40%)
- c: corn, effect grade on crop (corn [6]): 2 (Herbicidal ratio of 20% or higher and lower than 40%)

SMILES: CON=C(C)CC1CC(OC(=O)N2CCCCC2)=C(c2c(C)cc(C)cc2C)C1=O (centres unmarked) [1-151]
- F: Digitaria ciliaris, herbicidal effect grade (Digitaria ciliaris): 5 (Herbicidal ratio of 90% or more (almost completely withered))
- Herbicidal effect grade, C: Monochoria vaginalis (Monochoria vaginalis [1]): 0 (Herbicidal ratio of 5% or lower (almost no effect))
- b: directly sowed rice plant, effect on crop (criteria 0-5) (rice plant): 4 (Herbicidal ratio of 70% or higher and lower than 90%)
- c: corn, effect on crop (criteria 0-5) (corn [2]): 4 (Herbicidal ratio of 70% or higher and lower than 90%)
- Herbicidal effect grade, B: Scirpus juncoides (Scirpus juncoides): 1 (Herbicidal ratio of 5% or higher and lower than 20%)
- Herbicidal effect grade, A: Echinochloa oryzacola Vasing. [3]: 5 (Herbicidal ratio of 90% or more (almost completely withered))
- K: Lolium multiflorum Lam., herbicidal effect (criteria 0-5) (Lolium multiflorum Lam.): 5 (Herbicidal ratio of 90% or more (almost completely withered))
- O: Chenopodium album, herbicidal effect grade (Chenopodium album): 0 (Herbicidal ratio of 5% or lower (almost no effect))
- g: rapeseed, effect grade on crop (rapeseed): 0 (Herbicidal ratio of 5% or lower (almost no effect))
- Q: Galium spurium, herbicidal effect grade (Galium spurium): 0 (Herbicidal ratio of 5% or lower (almost no effect))
- M: Abutilon theophrasti, herbicidal effect grade (Abutilon theophrasti): 0 (Herbicidal ratio of 5% or lower (almost no effect))
- H: Echinochloa crus-galli var. crus-galli, herbicidal effect grade [4]: 0 (Herbicidal ratio of 5% or lower (almost no effect))
- I: Avena fatua, herbicidal effect grade (Avena fatua): 3 (Herbicidal ratio of 40% or higher and lower than 70%)
- Herbicidal effect grade, C: Monochoria vaginalis (Monochoria vaginalis [5]): 2 (Herbicidal ratio of 20% or higher and lower than 40%)
- d: soybean, effect on crop (criteria 0-5) (soybean): 2 (Herbicidal ratio of 20% or higher and lower than 40%)
- c: corn, effect grade on crop (corn [6]): 0 (Herbicidal ratio of 5% or lower (almost no effect))

SMILES: CON=C(C)CC1CC(OS(=O)(=O)CC[Si](C)(C)C)=C(c2c(C)cc(C)cc2C)C1=O (centres unmarked) [1-144]
- F: Digitaria ciliaris, herbicidal effect grade (Digitaria ciliaris): 5 (Herbicidal ratio of 90% or more (almost completely withered))
- Herbicidal effect grade, C: Monochoria vaginalis (Monochoria vaginalis [1]): 3 (Herbicidal ratio of 40% or higher and lower than 70%)
- b: directly sowed rice plant, effect on crop (criteria 0-5) (rice plant): 5 (Herbicidal ratio of 90% or more (almost completely withered))
- c: corn, effect on crop (criteria 0-5) (corn [2]): 5 (Herbicidal ratio of 90% or more (almost completely withered))
- Herbicidal effect grade, B: Scirpus juncoides (Scirpus juncoides): 4 (Herbicidal ratio of 70% or higher and lower than 90%)
- Herbicidal effect grade, A: Echinochloa oryzacola Vasing. [3]: 5 (Herbicidal ratio of 90% or more (almost completely withered))
- K: Lolium multiflorum Lam., herbicidal effect (criteria 0-5) (Lolium multiflorum Lam.): 5 (Herbicidal ratio of 90% or more (almost completely withered))
- O: Chenopodium album, herbicidal effect grade (Chenopodium album): 0 (Herbicidal ratio of 5% or lower (almost no effect))
- g: rapeseed, effect grade on crop (rapeseed): 2 (Herbicidal ratio of 20% or higher and lower than 40%)
- Q: Galium spurium, herbicidal effect grade (Galium spurium): 0 (Herbicidal ratio of 5% or lower (almost no effect))
- M: Abutilon theophrasti, herbicidal effect grade (Abutilon theophrasti): 0 (Herbicidal ratio of 5% or lower (almost no effect))
- H: Echinochloa crus-galli var. crus-galli, herbicidal effect grade [4]: 5 (Herbicidal ratio of 90% or more (almost completely withered))
- I: Avena fatua, herbicidal effect grade (Avena fatua): 2 (Herbicidal ratio of 20% or higher and lower than 40%)
- Herbicidal effect grade, C: Monochoria vaginalis (Monochoria vaginalis [5]): 2 (Herbicidal ratio of 20% or higher and lower than 40%)
- d: soybean, effect on crop (criteria 0-5) (soybean): 3 (Herbicidal ratio of 40% or higher and lower than 70%)
- c: corn, effect grade on crop (corn [6]): 3 (Herbicidal ratio of 40% or higher and lower than 70%)

SMILES: CON=C(C)CC1CC(OC(=O)c2c(Cl)nn(C)c2Cl)=C(c2c(C)cc(C)cc2C)C1=O (centres unmarked) [1-160]
- F: Digitaria ciliaris, herbicidal effect grade (Digitaria ciliaris): 5 (Herbicidal ratio of 90% or more (almost completely withered))
- Herbicidal effect grade, C: Monochoria vaginalis (Monochoria vaginalis [1]): 2 (Herbicidal ratio of 20% or higher and lower than 40%)
- b: directly sowed rice plant, effect on crop grade (rice plant): 5 (Herbicidal ratio of 90% or more (almost completely withered))
- c: corn, effect on crop grade (corn [2]): 4 (Herbicidal ratio of 70% or higher and lower than 90%)
- Herbicidal effect grade, B: Scirpus juncoides (Scirpus juncoides): 4 (Herbicidal ratio of 70% or higher and lower than 90%)
- Herbicidal effect grade, A: Echinochloa oryzacola Vasing. [3]: 5 (Herbicidal ratio of 90% or more (almost completely withered))
- K: Lolium multiflorum Lam., herbicidal effect grade (Lolium multiflorum Lam.): 5 (Herbicidal ratio of 90% or more (almost completely withered))
- O: Chenopodium album, herbicidal effect grade (Chenopodium album): 0 (Herbicidal ratio of 5% or lower (almost no effect))
- g: rapeseed, effect grade on crop (rapeseed): 4 (Herbicidal ratio of 70% or higher and lower than 90%)
- Q: Galium spurium, herbicidal effect grade (Galium spurium): 0 (Herbicidal ratio of 5% or lower (almost no effect))
- M: Abutilon theophrasti, herbicidal effect grade (Abutilon theophrasti): 4 (Herbicidal ratio of 70% or higher and lower than 90%)
- H: Echinochloa crus-galli var. crus-galli, herbicidal effect grade [4]: 5 (Herbicidal ratio of 90% or more (almost completely withered))
- I: Avena fatua, herbicidal effect grade (Avena fatua): 0 (Herbicidal ratio of 5% or lower (almost no effect))
- Herbicidal effect grade, C: Monochoria vaginalis (Monochoria vaginalis [5]): 4 (Herbicidal ratio of 70% or higher and lower than 90%)
- d: soybean, effect on crop grade (soybean): 2 (Herbicidal ratio of 20% or higher and lower than 40%)
- c: corn, effect grade on crop (corn [6]): 0 (Herbicidal ratio of 5% or lower (almost no effect))
